The record followed here is PubChem BioAssay (NCI).

Common to all, as to experiment: NCI-60 cell line screen, 48 h
The subject of test [1] is HCT-15 colon.
Test [2] concerns NCI-H23 lung.
The subject of test [3] is MCF7 breast.
The subject of test [4] is OVCAR-3 ovarian.
Test [5] deals with SW-620 colon.
Test [6] deals with TK-10 renal.
Test [7] concerns HCC-2998 colon.
The test system of test [8] is SF-268 CNS.
Test [9] relates to OVCAR-4 ovarian.
The test system of test [10] is SR leukemia.

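These data come from cells grown in 96-well plates and exposed to compound for 48 hours at five concentrations. GI50: concentration for 50% inhibition of growth. TGI denotes the concentration required for complete inhibition of growth.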

As for `C=C(C)[C@@H]1CC[C@]2(C(=O)n3ccnc3)CC[C@]3(C)[C@H](CC[C@@H]4[C@@]5(C)CCCNC(C)(C)[C@@H]5CC[C@]43C)[C@@H]12`, the GI50 is 1.26 µM in [1]; 1.78 µM in test [2]; 1.5 µM in test [3]; 1.67 µM in test [4]; 1.68 µM in test [5]; 2.58 µM in test [6]. The values for the GI50 in [7] and in test [8] were 1.64 µM and 2.77 µM, respectively. Besides, the TGI in test [1] was 2.64 µM; in test [2], 3.89 µM; in test [3], 3.23 µM; in test [4] it was 3.14 µM; in [5] it was 3.39 µM; in [6], 6.82 µM. Also, the TGI stood at 3.2 µM in [7] and 9.21 µM in [8].

With `NC(=O)C(=O)Cc1nc2ccccc2s1`, the TGI in test [1], in [2], in test [4], in [5], in test [6] and in [7] was > 100 µM throughout. Moreover, the TGI in test [8] and in [9] was > 100 µM each time.

Consider `CC1(C)OC2OC(COC(=O)C(c3ccccc3)c3ccccc3)C3OC(C)(C)OC3C2O1` (stereo not given), for which the TGI in test [1], in test [2], in [5], in test [6], in [7] and in test [8] was > 100 µM each time. In [9], the TGI was > 100 µM. Moreover, the GI50 in [6] and in [7] was > 100 µM each time.

In the case of `COc1ccc2nc(-c3ccc(O)cc3)ccc2c1`, the TGI in test [2], in [4], in test [5], in test [6], in test [7] and in test [10] was > 100 µM each time. Besides, the TGI in test [9] is > 100 µM.

For `Cc1cn2c(/C=C3/C(=O)Nc4ccc(C(=O)O)cc43)c(C)nc2s1`, the GI50 in test [1], in [2], in [3], in test [4], in test [5] and in test [6] was > 100 µM in each case. Besides, the GI50 in [7], in test [8] and in test [9] was > 100 µM each time. In addition, the TGI in [1], in [2], in test [3], in [4], in test [5] and in test [6] was > 100 µM each time. The TGI in [7], in test [8] and in test [9] was > 100 µM in each case.

`Cc1csc(CCC(N)C(=O)O)n1` (stereo not given): the TGI in test [1], in test [2], in test [4], in [5], in test [6] and in [7] was > 100 µM throughout.

Turning to `C1CCN2CC3CONC3C2C1` (stereo not given), the TGI in test [1], in test [2], in test [4], in test [5], in test [6] and in test [7] was > 100 µM in each case. Moreover, the TGI in test [8] and in test [9] was > 100 µM each time.

Consider `CC(C)(C)c1cc(C(OCCl)(C(F)(F)F)C(F)(F)F)c2c(c1)C(C(F)(F)F)(C(F)(F)F)OC21c2ccccc2C(=O)c2ccccc21`, for which the TGI in test [1], in [2], in test [4], in test [5], in [6] and in test [7] was > 100 µM throughout. The TGI in [10] and in [9] was > 100 µM throughout.

As to `C1=C(c2ccccc2)C(OC2Oc3ccccc3C=C2c2ccccc2)Oc2ccccc21` (stereo not given), the TGI in [1], in test [2], in test [4], in [5], in test [6] and in [7] was > 100 µM in each case. The TGI in test [10] and in [8] was > 100 µM each time.

On to `OC1CSCCSCCCSCCSC1`, for which the TGI in test [1], in test [2], in test [3], in [4], in [5] and in test [6] was > 100 µM each time. Also, the TGI in test [7], in test [8] and in test [9] was > 100 µM throughout.

Regarding `O=C1c2ccccc2-c2c1c1ccc([N+](=O)[O-])cc1c(=O)n2CCCCl`, the GI50 in test [1] was > 100 µM; in test [2], 3.52 µM; in test [3] it was 1.12 µM; in test [4] it was 4.91 µM; in test [5], 3.12 µM; in test [6], 37.8 µM. Moreover, in test [8], the GI50 is 23.5 µM. Besides, the TGI in [1] is > 100 µM; in test [2] it was 54.1 µM; in test [3], > 100 µM; in test [4] it was 77 µM; in test [5] it was > 100 µM; in [6], > 100 µM. The TGI in [8] was > 100 µM.

In the case of `Nc1c(-c2nc3ccccc3s2)[n+]([O-])c2ccccc2[n+]1[O-]`, the TGI is 51.4 µM in test [2]; 60.6 µM in test [4]; > 100 µM in test [5]; > 100 µM in [6]; > 100 µM in [7]; 82.2 µM in [8]. Also, the TGI in test [9] is > 100 µM.

Turning to `O=C(CCC(=O)C1Cc2ccccc2C1=O)Nc1cccc(C(F)(F)F)c1` (stereo not given), the TGI in test [1], in [2], in test [4], in test [5], in test [6] and in test [7] was > 100 µM each time. For the same compound, the TGI in test [8] and in [9] was > 100 µM in each case.

Take `Nc1c(C(=O)Nc2ccccc2O)[n+]([O-])c2ccccc2[n+]1[O-]`: the TGI is > 100 µM in [1]; 84.7 µM in [2]; > 100 µM in test [4]; 48.6 µM in test [5]; > 100 µM in test [10]; > 100 µM in [9].

For `O=c1c2cccc3cccc(c4n1CCCN=4)c32`, the TGI in [1], in test [2], in test [4], in test [5], in [6] and in [10] was > 100 µM throughout. In addition, the TGI in test [8] and in [9] was > 100 µM each time.
